Starred links: 1 amine or outer side, 2 acyl side, 3 side chain; linkers in the order of their positions; H or OH if unused. Non-standard residues stand in square brackets, D forms with d. Residues, ends and D or L forms follow the SMILES beside them. Phe(4-tetrazol-5-yl) = N[C@@H](Cc1ccc(-c2nnn[nH]2)cc1)C(=O)O; X1 = O=C([C@H](Cc1ccc(Cc2nn[nH]n2)cc1)N[*:1])[*:2] Some results are limits rather than exact numbers.

In ChEMBL document CHEMBL1148891, “New syntheses of tetrazolylmethylphenylalanine and O-malonyltyrosine as pTyr mimetics for the design of STAT3 dimerization inhibitors” (Bioorg Med Chem Lett, 2007) one finds IC50 data, which are given here for two compounds.

This test deals with Signal transducer and activator of transcription 3 (Homo sapiens, UniProt P40763). As to the kind of experiment: Inhibition of STAT3 dimer DNA binding activity by ELISA after 30 mins.
Signal transducer and activator of transcription 3, sequence (P40763 whole entry): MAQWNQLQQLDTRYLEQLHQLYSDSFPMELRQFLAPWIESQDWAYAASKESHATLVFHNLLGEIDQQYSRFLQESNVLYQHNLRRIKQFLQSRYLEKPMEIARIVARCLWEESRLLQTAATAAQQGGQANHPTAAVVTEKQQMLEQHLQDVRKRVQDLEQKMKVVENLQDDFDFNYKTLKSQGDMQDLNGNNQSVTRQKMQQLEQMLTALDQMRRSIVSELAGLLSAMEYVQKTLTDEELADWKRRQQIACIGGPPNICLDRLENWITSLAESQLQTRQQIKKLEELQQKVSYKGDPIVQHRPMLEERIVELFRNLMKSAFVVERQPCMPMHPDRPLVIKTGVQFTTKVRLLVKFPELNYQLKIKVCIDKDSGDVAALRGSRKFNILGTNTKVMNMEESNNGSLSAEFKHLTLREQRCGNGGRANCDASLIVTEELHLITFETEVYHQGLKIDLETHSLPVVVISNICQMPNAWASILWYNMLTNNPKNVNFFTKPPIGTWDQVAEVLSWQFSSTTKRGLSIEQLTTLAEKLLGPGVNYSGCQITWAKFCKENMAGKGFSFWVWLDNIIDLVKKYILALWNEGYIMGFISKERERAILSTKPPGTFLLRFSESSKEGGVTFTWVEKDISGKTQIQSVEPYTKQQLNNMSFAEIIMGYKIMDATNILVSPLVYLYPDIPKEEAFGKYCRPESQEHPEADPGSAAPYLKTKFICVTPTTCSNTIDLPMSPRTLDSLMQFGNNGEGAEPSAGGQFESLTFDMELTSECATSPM

As to `CC(=O)N[C@@H](Cc1ccc(-c2nnn[nH]2)cc1)C(=O)N[C@@H](CC(C)C)C(=O)N1CCC[C@H]1C(=O)N[C@@H](CCC(N)=O)C(=O)N[C@H](C(=O)N[C@H](C(=O)O)C(C)C)[C@@H](C)O` (Ac-[Phe(4-tetrazol-5-yl)]LPQTV-OH), the IC50 – broadly, the concentration at which inhibition is half-maximal – is over 800 nM. Turning to `CC(=O)N[C@@H](Cc1ccc(Cc2nn[nH]n2)cc1)C(=O)N[C@@H](CC(C)C)C(=O)N1CCC[C@H]1C(=O)N[C@@H](CCC(N)=O)C(=O)N[C@H](C(=O)N[C@H](C(=O)O)C(C)C)[C@@H](C)O` (Ac-[X1]LPQTV-OH), the half-maximal inhibitory concentration (IC50) was over 1000 nM.
